Measurements taken from patent US12186278B2, “Mesothelin chimeric antigen receptor (CAR) and antibody against PD-L1 inhibitor for combined use in anticancer therapy” (Novartis AG, priority 2015, dated 2025).

Experiments:
[1] = test system: huCART19 cells co-cultured with Nalm-6; experiment: CART proliferation in 4 day co-culture with Nalm-6 in the presence of RAD001; assay type: cell-based, human
Protocol: The effect of low doses of RAD001 on CAR T cell proliferation in vitro was evaluated by co-culturing CART-expressing cells with target cells in the presence of different concentrations of RAD001.
A humanized, anti-human CD19 CAR (huCART19) lentiviral transfer vector was used to produce the genomic material packaged into VSVg pseudotyped lentiviral particles. The amino acid and nucleotide sequence of the humanized anti-human CD19 CAR (huCART19) is CAR 1, ID 104875 described in PCT publication, WO2014/153270, filed Mar. 15, 2014, and is designated SEQ ID NOs. 85 and 31 therein.
Lentiviral transfer vector DNA is mixed with the three packaging components VSVg env, gag/pol and rev in combination with lipofectamine reagent to transfect Lenti-X 293T cells. Medium is changed after 24 h and 30 h thereafter, the virus-containing media is collected, filtered and stored at −80° C. CARTs are generated by transduction of fresh or frozen naïve T cells obtained by negative magnetic selection of healthy donor blood or leukopak. T cells are activated by incubation with anti-CD3/anti-CD28 beads for 24 h, after which viral supernatant or concentrated virus (MOI=2 or 10, respectively) is added to the cultures. The modified T cells are allowed to expand for about 10 days. The percentage of cells transduced (expressing the CARs on the cell surface) and the level of CAR expression (relative fluorescence intensity, Geo Mean) are determined by flow cytometric analysis between days 7 and 9. The combination of slowing growth rate and T cell size approaching ˜350 fL determines the state for T cells to be cryopreserved for later analysis.
To evaluate the functionality of CARTs, the T cells are thawed and counted, and viability is assessed by Cellometer. The number of CAR-positive cells in each culture is normalized using non-transduced T cells (UTD). […]
For measuring the proliferation of CARTs, T cells are cultured with target cells at a ratio of 1:1. […] The number of T cells is assessed by flow cytometry using counting beads as reference.

[2] = test system: NALM6-luc tumors; experiment: NALM6-luc tumor growth with daily RAD001 dosing; assay type: in vivo, NSG mice; conditions: daily oral dosing of RAD001 alone, 0.3, 1, 3 and 10 mg/kg; FIG. 7
Protocol: NALM6-luc cells: The NALM6 human acute lymphoblastic leukemia (ALL) cell line was developed from the peripheral blood of a patient with relapsed ALL. The cells were then tagged with firefly luciferase. These suspension cells grow in RPMI supplemented with 10% heat inactivated fetal bovine serum.
Mice: 6 week old NSG (NOD.Cg-Prkdc^scidIl2rg^tm1Wjl/SzJ) mice were received from the Jackson Laboratory (stock number 005557).
(§1) Tumor implantation: NALM6-luc cells were grown and expanded in vitro in RPMI supplemented with 10% heat inactivated fetal bovine serum. The cells were then transferred to a 15 ml conical tube and washed twice with cold sterile PBS. NALM6-luc cells were then counted and resuspended at a concentration of 10×10^6 cells per milliliter of PBS. The cells were placed on ice and immediately (within one hour) implanted in the mice. NALM6-luc cells were injected intravenously via the tail vein in a 100 μl volume, for a total of 1×10^6 cells per mouse.
(§2) RAD001 dosing: A concentrated micro-emulsion of 50 mg equal to 1 mg RAD001 was formulated and then resuspended in D5W (dextrose 5% in water) at the time of dosing. Mice were orally dosed daily (via oral gavage) with 200 μl of the desired doses of RAD001.
PK analysis: Mice were dosed daily with RAD001 starting 7 days post tumor implantation. Dosing groups were as follows: 0.3 mg/kg, 1 mg/kg, 3 mg/kg, and 10 mg/kg. […]

[3] = Pharmacokinetic analysis of RAD001 in blood of NSG mice with NALM6 tumors; assay type: in vivo
Protocol: as §2
PK analysis: Mice were dosed daily with RAD001 starting 7 days post tumor implantation. Dosing groups were as follows: 0.3 mg/kg, 1 mg/kg, 3 mg/kg, and 10 mg/kg. Mice were bled on days 0 and 14 following the first and last dose of RAD001, at the following time points for PK analysis: 15 minutes, 30 minutes, 1 hour, 2 hours, 4 hours, 8 hours, 12 hours, and 24 hours.

[4] = test system: huCAR19 CAR T cells; experiment: In vivo proliferation of humanized CD19 CAR T cells with and without RAD001 dosing; set-up: species or system NSG mice
Protocol: This example evaluates the ability of huCAR19 cells to proliferate in vivo with different concentrations of RAD001.
as §1
CAR T cell dosing: Mice were administered 5×10^6 CAR T cells 7 days after tumor implantation. Cells were partially thawed in a 37 degree Celsius water bath and then completely thawed by the addition of 1 ml of cold sterile PBS to the tube containing the cells. The thawed cells were transferred to a 15 ml falcon tube and adjusted to a final volume of 10 mls with PBS. The cells were washed twice at 1000 rpm for 10 minutes each time and then counted on a hemocytometer. T cells were then resuspended at a concentration of 50×10^6 CAR T cells per ml of cold PBS and kept on ice until the mice were dosed. The mice were injected intravenously via the tail vein with 100 μl of the CAR T cells for a dose of 5×10^6 CAR T cells per mouse. Eight mice per group were treated either with 100 μl of PBS alone (PBS), or humanized CD19 CAR T cells.
as §2
Based on these doses, huCAR19 CAR T cells were dosed with and without RAD001 to determine the proliferative ability of these cells. The highest dose used was 3 mg/kg based on the levels of RAD001 in the blood 24 hours after dosing. As the concentration of RAD001 was above 10 nM 24 hours after the final dose of RAD001, several lower doses of RAD001 were used in the in vivo study with CAR T cells. The CAR T cells were dosed IV one day prior to the start of the daily oral RAD001 dosing. Mice were monitored via FACS for T cell expansion.

## CO[C@H]1C[C@@H]2CC[C@@H](C)[C@@](O)(O2)C(=O)C(=O)N2CCCC[C@H]2C(=O)O[C@H]([C@H](C)C[C@@H]2CC[C@@H](OCCO)[C@H](OC)C2)CC(=O)[C@H](C)/C=C(\C)[C@@H](O)[C@@H](OC)C(=O)[C@H](C)C[C@H](C)/C=C/C=C/C=C/1C [RAD001, (1R,9S,12S,15R,16E,18R,19R,21R,23S,24E,26E,28E,30S,32S,35R)-1,18-dihydroxy-12-{(1R)-2-[(1S,3R,4R)-4-(2-hydroxyethoxy)-3-methoxycyclohexyl]-1-methylethyl}-19,30-dimethoxy-15,17,21,23,29,35-hexamethyl-11,36-dioxa-4-aza-tricyclo[30.3.1.04,9]hexatriaconta-16,24,26,28-tetraene-2,3,10,14,20-pentaone]
[1]; 0.0032 and 0.016 nM RAD001, 4 day co-culture with Nalm-6
  proliferation of huCART19 compared with no RAD001: higher than observed without the addition of RAD001
[1]; 4 day co-culture with Nalm-6 at 1:1, to a lesser extent at higher concentrations, FIG. 6
  RAD001 concentration at which huCART19 cells expanded: less than 0.016 nM
[1]; low doses of RAD001, co-culture with Nalm-6, 4 days, FIG. 6 legend
  proliferation of CAR-expressing, transduced T cells: enhanced
[2]
  growth of NALM6-luc tumors: did not have an impact
[3]; NSG, mouse, blood, lowest dose tested (0.3 mg/kg), oral, day 0 and day 14 PK, read-out: RAD001 concentrations in the blood 24 hours after dosing
  concentration at 24 h: > 10 nM
[3]; blood, NSG mice with NALM6 tumors
  concentration of RAD001 24 hours after the final dose: above 10 nM
[3]; daily oral RAD001, FIGS. 8A and 8B
  stability in the blood of tumor bearing mice: fairly stable
[4]; RAD001 0.003 mg/kg daily, FIG. 9 legend
  CAR T cell proliferation relative to normal level of huCAR19 proliferation: enhancement in CAR T cell proliferation
[4]; lowest doses of RAD001, daily oral, huCAR19 CAR T cells IV one day before, FIGS. 9A and 9B
  proliferation of the CAR T cells in vivo: enhanced proliferation
[4]; lowest doses of RAD001, FIG. 9A
  enhanced proliferation, CD4+ CAR T cells compared with CD8+ CAR T cells: more evident and prolonged
[4]; lowest doses of RAD001, FIG. 9B
  proliferation of CD8+ CAR T cells: enhanced proliferation can be seen at early time points
